Test results taken from ChEMBL document CHEMBL2176963, “Design, synthesis, and biological evaluation of 3-(1H-1,2,3-triazol-1-yl)benzamide derivatives as Potent Pan Bcr-Abl inhibitors including the threonine(315)→isoleucine(315) mutant” (J Med Chem, 2012).

Assays:
[1] = Antiproliferative activity against mouse BA/F3 cells expressing wild type Bcr-Abl after 72 hrs by CCK-8 assay; conditions: BaF3, 72 h
K562 [2] = assay: Antiproliferative activity against human K562 cells expressing wild type Bcr-Abl after 72 hrs by CCK-8 assay; conditions: K562, 72 h
K562 [3] = assay: Antiproliferative activity against imatinib-resistant human K562 cells expressing Bcr-Abl Q252H mutant after 72 hrs by CCK-8 assay; conditions: K562, 72 h
[4] = Antiproliferative activity against human KU812 cells expressing wild type Bcr-Abl after 72 hrs by CCK-8 assay; conditions: KU812, 72 h
cells = conditions: Mus musculus, BaF3, 72 h

IC50 (K562 [2]) [nM]	IC50 (K562 [3]) [nM]	IC50 (cells) [nM]	Structure (SMILES)	IC50 [1] [nM]	IC50 [4] [nM]
0.85	8.96	282	CCc1ccc(C(=O)Nc2ccc(CN3CCN(C)CC3)c(C(F)(F)F)c2)cc1-n1cc(-c2cnc3[nH]ncc3c2)nn1	4.04	0.39
7.26	81.2	799	Cc1ccc(C(=O)Nc2ccc(CN3CCN(C)CC3)c(C(F)(F)F)c2)cc1-n1cc(-c2cnc(NC(C)C)nc2)nn1	32.8	1.44
0.24	2.28	130	CN1CCN(Cc2ccc(NC(=O)c3ccc(F)c(-n4cc(-c5cnc6[nH]ncc6c5)nn4)c3)cc2C(F)(F)F)CC1	3.9	0.1
0.66	12.1	939	Cc1ccc(C(=O)Nc2ccc(CN3CCCC3)c(C(F)(F)F)c2)cc1-n1cc(-c2cnc3[nH]ncc3c2)nn1	2.47	0.19
3.5	21.9	652	Cc1ccc(C(=O)Nc2cc(-n3cncn3)cc(C(F)(F)F)c2)cc1-n1cc(-c2cnc3[nH]ncc3c2)nn1	4.54	0.46
8.82	181	3500	Cc1ccc(C(=O)Nc2ccc(CN3CCN(C)CC3)c(C(F)(F)F)c2)cc1-n1cc(-c2cnc(NCc3ccccc3)nc2)nn1	28.2	1.89
0.67	10.8	728	CN1CCN(Cc2ccc(NC(=O)c3cccc(-n4cc(-c5cnc6[nH]ncc6c5)nn4)c3)cc2C(F)(F)F)CC1	3.98	1.34
0.44	2.6	6.18	Cc1ccc(Nc2ncc3c(n2)N(C)C(=O)N(c2cc(NC(=O)c4cccc(C(F)(F)F)c4)ccc2C)C3)cn1	3.15	0.08
74	219	2060	CC(C)c1ccc(C(=O)Nc2ccc(CN3CCN(C)CC3)c(C(F)(F)F)c2)cc1-n1cc(-c2cnc3[nH]ncc3c2)nn1	420	14.2
0.8	8.45	294	Cc1ccc(C(=O)Nc2ccc(CN3CCCN(C)CC3)c(C(F)(F)F)c2)cc1-n1cc(-c2cnc3[nH]ncc3c2)nn1	4.02	0.38
0.67	6.56	527	Cc1ccc(C(=O)Nc2ccc(CN3CCC(N(C)C)CC3)c(C(F)(F)F)c2)cc1-n1cc(-c2cnc3[nH]ncc3c2)nn1	2.76	0.43
5.69	37.5	1160	CN1CCN(Cc2ccc(NC(=O)c3ccc(C4CC4)c(-n4cc(-c5cnc6[nH]ncc6c5)nn4)c3)cc2C(F)(F)F)CC1	32.9	4.05
0.32	2.24	91.7	Cc1ccc(C(=O)Nc2ccc(CN3CC[C@H](N(C)C)C3)c(C(F)(F)F)c2)cc1-n1cc(-c2cnc3[nH]ncc3c2)nn1	3.01	0.68
0.23	1.49	46.4	CN1CCN(Cc2ccc(NC(=O)c3ccc(Br)c(-n4cc(-c5cnc6[nH]ncc6c5)nn4)c3)cc2C(F)(F)F)CC1	3.28	0.1
0.67	11	299	CNc1ncc(-c2cn(-c3cc(C(=O)Nc4ccc(CN5CCN(C)CC5)c(C(F)(F)F)c4)ccc3C)nn2)cn1	2.74	0.16
3.87	16.2	8840	Cc1ccc(C(=O)Nc2ccc(CN3CCN(C)CC3)c(C(F)(F)F)c2)cc1-n1cc(-c2cnc3ncccn23)nn1	47.9	11.1

IC50 (K562 [2]) [nM]	IC50 (K562 [3]) [nM]	IC50 (cells) [nM]	Structure (SMILES)	IC50 [1] [nM]	IC50 [4] [nM]
3.22	31.1	3510	Cc1ccc(C(=O)Nc2ccc(CN3CCCCC3)c(C(F)(F)F)c2)cc1-n1cc(-c2cnc3[nH]ncc3c2)nn1	5.39	0.47
3.37	25.7	656	Cc1cn(-c2cc(NC(=O)c3ccc(C)c(-n4cc(-c5cnc6[nH]ncc6c5)nn4)c3)cc(C(F)(F)F)c2)cn1	4.72	0.73
0.39	4.74	79.6	Cc1ccc(C(=O)Nc2ccc(CN3CCN(C)CC3)c(C(F)(F)F)c2)cc1-n1cc(-c2cnc3[nH]nc(C)c3c2)nn1	2.03	0.15
12.4	109	754	Cc1ccc(C(=O)Nc2ccc(CN3CCN(C)CC3)c(C(F)(F)F)c2)cc1-n1cc(-c2ccc3[nH]ncc3c2)nn1	56.2	12.2
798	893	3590	Cc1ccc(C(=O)Nc2ccc(CN3CCN(C)CC3)c(C(F)(F)F)c2)cc1-n1cc(-c2cnc(N3CCCCC3)nc2)nn1	1240	158
0.85	17.1	494	Cc1ccc(C(=O)Nc2ccc(CN3CCN(C)CC3)c(C(F)(F)F)c2)cc1-n1cc(-c2cnc(N)nc2)nn1	3.35	0.2
2.45	17.1	1440	Cc1ccc(C(=O)Nc2ccc(CN3CCN(C)CC3)c(C(F)(F)F)c2)cc1-n1cc(-c2cnn3cccnc23)nn1	7.31	1.51
1.24	19.2	579	Cc1ccc(C(=O)Nc2ccc(CN3CCN(C)CC3)c(C(F)(F)F)c2)cc1-n1cc(-c2cnc(NC3CC3)nc2)nn1	3.01	0.22
0.25	3.55	473	Cc1ccc(C(=O)Nc2ccc(CN3C[C@H]4CN(C)C[C@H]4C3)c(C(F)(F)F)c2)cc1-n1cc(-c2cnc3[nH]ncc3c2)nn1	3.66	0.4
40.9	76.8	533	Cc1ccc(C(=O)Nc2ccc(CN3CCN(C)CC3)c(C(F)(F)F)c2)cc1-n1cc(-c2cnc3ncnn3c2)nn1	316	11.2
1.25	4.32	873	Cc1ccc(C(=O)Nc2ccc(CN3CCC(N4CCN(C)CC4)CC3)c(C(F)(F)F)c2)cc1-n1cc(-c2cnc3[nH]ncc3c2)nn1	23.8	1.48
35.8	1.41	> 10000	Cc1ccc(C(=O)Nc2ccc(CN3CCN(C)CC3)c(C(F)(F)F)c2)cc1-n1cc(-c2cnc3cccnn23)nn1	27.4	14.6
2.9	34.2	620	Cc1ncn(-c2cc(NC(=O)c3ccc(C)c(-n4cc(-c5cnc6[nH]ncc6c5)nn4)c3)cc(C(F)(F)F)c2)n1	3.68	0.4
7.04	72.8	3630	Cc1ccc(C(=O)Nc2ccc(CN3CCN(C)CC3)c(C(F)(F)F)c2)cc1-n1cc(-c2cnc(NC3CCCCC3)nc2)nn1	28.3	1.57
0.63	1.85	178	Cc1ccc(C(=O)Nc2ccc(CN3CCN(C)CC3)c(C(F)(F)F)c2)cc1-n1cc(-c2cnc3ccccn23)nn1	4.54	0.16
